In patent publication US12091426B2, “Bifunctional degraders of hematopoietic progenitor kinase and therapeutic uses thereof” (Nurix Therapeutics, Inc., priority 2021, dated 2024):

Target: T1, HPK1 (Homo sapiens, UniProt Q92918)
T1 construct: A HiBiT tag was introduced by CRISPR on the N terminus of HPK1 in Jurkat cells; host or cells: Jurkat cells (ATCC TIB-152), monoclonal line with CRISPR knock-in of HiBiT at the endogenous HPK1 locus
Assay: HPK1 Cellular HiBit Degradation Assay
Format: cell-based
Conditions: HiBiT HPK1 Jurkat cells, 24 hrs; for DC50: concentration at which 50% of HPK1 was remaining, read-out: DC50 Category; for Dmax: Jurkat, maximum degradation vs DMSO vehicle control, read-out: Dmax Category
Outline: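 Degraders are dosed in an 11-point series (10 uM to 0.1 nM final) onto Jurkat cells carrying an N-terminal HiBiT tag on endogenous HPK1. After 24 hrs at 37° C, lysis-based HiBiT luminescence quantifies remaining HPK1 relative to vehicle, and curve fitting gives DC50 and Dmax.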

T1 sequence (Q92918 whole entry): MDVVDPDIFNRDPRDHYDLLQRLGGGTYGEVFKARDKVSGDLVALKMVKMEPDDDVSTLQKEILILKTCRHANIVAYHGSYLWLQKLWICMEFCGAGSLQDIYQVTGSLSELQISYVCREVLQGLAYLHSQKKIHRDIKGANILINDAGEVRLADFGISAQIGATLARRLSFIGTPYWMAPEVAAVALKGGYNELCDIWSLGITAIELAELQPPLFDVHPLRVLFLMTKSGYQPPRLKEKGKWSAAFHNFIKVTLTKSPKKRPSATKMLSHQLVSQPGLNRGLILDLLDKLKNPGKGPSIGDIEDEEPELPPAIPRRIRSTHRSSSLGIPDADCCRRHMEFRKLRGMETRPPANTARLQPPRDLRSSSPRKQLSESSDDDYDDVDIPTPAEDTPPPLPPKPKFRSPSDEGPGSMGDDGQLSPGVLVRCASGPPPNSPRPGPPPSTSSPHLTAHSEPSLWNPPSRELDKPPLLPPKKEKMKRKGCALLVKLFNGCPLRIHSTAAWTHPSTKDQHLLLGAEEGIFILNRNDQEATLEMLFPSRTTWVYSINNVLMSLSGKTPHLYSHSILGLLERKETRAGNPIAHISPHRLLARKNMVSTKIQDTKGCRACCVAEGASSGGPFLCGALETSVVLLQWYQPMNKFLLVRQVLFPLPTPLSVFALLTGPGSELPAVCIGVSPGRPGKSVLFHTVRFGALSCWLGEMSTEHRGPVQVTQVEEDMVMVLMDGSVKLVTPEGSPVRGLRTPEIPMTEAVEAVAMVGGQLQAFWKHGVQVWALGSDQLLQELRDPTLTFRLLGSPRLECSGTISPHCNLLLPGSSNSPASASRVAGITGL

| SMILES | DC50 | Dmax |
| --- | --- | --- |
| CC(C)n1cnc2cc(-c3ccc4c(c3)N([C@H]3C[C@@H](N5CCCCC5)C3)C(=O)C43CCN(C(=O)C4(C)CCN(C(=O)[C@H]5CC[C@H](Oc6ccc(N7CCC(=O)NC7=O)cn6)CC5)CC4)CC3)nc(Nc3ccncc3F)c21 [Example 109, 1-(6-{[(1R,4R)-4-{4-[(6-{4-[(3-Fluoropyridin-4-yl)amino]-3-(propan-2-yl)-3H-imidazo[4,5-c]pyridin-6-yl}-2-oxo-1-[(1S,3S)-3-(piperidin-1-yl)cyclobutyl]-1,2-dihydrospiro[indole-3,4′-piperidin]-1′-yl)carbonyl]-4-methylpiperidine-1-carbonyl}cyclohexyl]oxy}pyridin-3-yl)-1,3-diazinane-2,4-dione] | 100 to 500 nM | 50 to 70% |
| CC(C)n1cnc2cc(-c3ccc4c(c3)N([C@H]3C[C@@H](N5CCCCC5)C3)C(=O)C43CCN(C(=O)C4(C)CCN(C(=O)C5CCN(c6ccc(N7CCC(=O)NC7=O)cn6)CC5)CC4)CC3)nc(NC3CC3)c21 [Example 115, 1-(6-{4-[4-({6-[4-(cyclopropylamino)-3-(propan-2-yl)-3H-imidazo[4,5-c]pyridin-6-yl]-2-oxo-1-[(1S,3S)-3-(piperidin-1-yl)cyclobutyl]-1,2-dihydrospiro[indole-3,4′-piperidin]-1′-yl}carbonyl)-4-methylpiperidine-1-carbonyl]piperidin-1-yl}pyridin-3-yl)-1,3-diazinane-2,4-dione] | < 100 nM | 70 to 85% |
| CC(C)n1cnc2cc(-c3ccc4c(c3)N([C@H]3C[C@@H](N5CCCCC5)C3)C(=O)C43CCN(C(=O)C4(C)CCN(C(=O)C5CCN(c6ccc(N7CCC(=O)NC7=O)cn6)CC5)CC4)CC3)nc(Nc3ccccc3F)c21 [Example 116, 1-[6-(4-{4-[(6-{4-[(2-fluorophenyl)amino]-3-(propan-2-yl)-3H-imidazo[4,5-c]pyridin-6-yl}-2-oxo-1-[(1S,3S)-3-(piperidin-1-yl)cyclobutyl]-1,2-dihydrospiro[indole-3,4′-piperidin]-1′-yl)carbonyl]-4-methylpiperidine-1-carbonyl}piperidin-1-yl)pyridin-3-yl]-1,3-diazinane-2,4-dione] | < 100 nM | > 85% |
| CC(C)n1cnc2cc(-c3ccc4c(c3)N([C@H]3C[C@@H](N5CCCCC5)C3)C(=O)C43CCN(C(=O)C4(C)CCN(C(=O)C5CCN(c6ccc(N7CCC(=O)NC7=O)cn6)CC5)CC4)CC3)nc(Nc3ccncc3F)c21 [Example 117, 1-[6-(4-{4-[(6-{4-[(3-fluoropyridin-4-yl)amino]-3-(propan-2-yl)-3H-imidazo[4,5-c]pyridin-6-yl}-2-oxo-1-[(1S,3S)-3-(piperidin-1-yl)cyclobutyl]-1,2-dihydrospiro[indole-3,4′-piperidin]-1′-yl)carbonyl]-4-methylpiperidine-1-carbonyl}piperidin-1-yl)pyridin-3-yl]-1,3-diazinane-2,4-dione] | < 100 nM | > 85% |
| CC(C)n1cnc2cc(-c3ccc4c(c3)N([C@H]3C[C@@H](N5CCCCC5)C3)C(=O)C43CCN(C(=O)C4(C)CCN(C(=O)C5CCN(c6ccc7c(c6)C(=O)N(C6CCC(=O)NC6=O)C7=O)CC5)CC4)CC3)nc(NC3CC3)c21 (stereo partly drawn) [Example 121, 5-{4-[4-({6-[4-(cyclopropylamino)-3-(propan-2-yl)-3H-imidazo[4,5-c]pyridin-6-yl]-2-oxo-1-[(1s,3s)-3-(piperidin-1-yl)cyclobutyl]-1,2-dihydrospiro[indole-3,4′-piperidin]-1′-yl}carbonyl)-4-methylpiperidine-1-carbonyl]piperidin-1-yl}-2-(2,6-dioxopiperidin-3-yl)-2,3-dihydro-1H-isoindole-1,3-dione] | 500 to 1000 nM | 50 to 70% |
| CC(C)n1cnc2cc(-c3ccc4c(c3)N([C@H]3C[C@@H](N5CCCCC5)C3)C(=O)C43CCN(C(=O)C4(C)CCN(C(=O)C5CCN(c6ccc7c(c6)C(=O)N(C6CCC(=O)NC6=O)C7=O)CC5)CC4)CC3)nc(Nc3ccccc3F)c21 (stereo partly drawn) [Example 122, 2-(2,6-dioxopiperidin-3-yl)-5-(4-{4-[(6-{4-[(2-fluorophenyl)amino]-3-(propan-2-yl)-3H-imidazo[4,5-c]pyridin-6-yl}-2-oxo-1-[(1S,3S)-3-(piperidin-1-yl)cyclobutyl]-1,2-dihydrospiro[indole-3,4′-piperidin]-1′-yl)carbonyl]-4-methylpiperidine-1-carbonyl}piperidin-1-yl)-2,3-dihydro-1H-isoindole-1,3-dione] | 100 to 500 nM | 70 to 85% |
| CC(C)n1cnc2cc(-c3ccc4c(c3)N([C@H]3C[C@@H](N5CCCCC5)C3)C(=O)C43CCN(C(=O)C4(C)CCN(C(=O)C5CCN(c6ccc(N7CCC(=O)NC7=O)cn6)CC5(F)F)CC4)CC3)nc(NC3CC3)c21 (stereo partly drawn) [Example 153, 1-(6-{4-[4-({6-[4-(cyclopropylamino)-3-isopropylimidazo[4,5-c]pyridin-6-yl]-2-oxo-1-[(1S,3S)-3-(piperidin-1-yl)cyclobutyl]spiro[indole-3,4′-piperidin]-1′-yl}carbonyl)-4-methylpiperidine-1-carbonyl]-3,3-difluoropiperidin-1-yl}pyridin-3-yl)-1,3-diazinane-2,4-dione] | < 100 nM | 70 to 85% |
| CC(C)n1cnc2cc(-c3ccc4c(c3)N([C@H]3C[C@@H](N5CCCCC5)C3)C(=O)C43CCN(C(=O)C4(C)CCN(C(=O)C[C@H]5CCN(c6ccc(C7CCC(=O)NC7=O)cn6)C5)CC4)CC3)nc(NC3CC3)c21 (stereo partly drawn) [Example 154, 3-{6-[(3R)-3-{2-[4-({6-[4-(cyclopropylamino)-3-isopropylimidazo[4,5-c]pyridin-6-yl]-2-oxo-1-[(1S,3S)-3-(piperidin-1-yl)cyclobutyl]spiro[indole-3,4′-piperidin]-1′-yl}carbonyl)-4-methylpiperidin-1-yl]-2-oxoethyl}pyrrolidin-1-yl]pyridin-3-yl}piperidine-2,6-dione] | 100 to 500 nM | 50 to 70% |
| CC(C)n1cnc2cc(-c3ccc4c(c3)N([C@H]3C[C@@H](N5CCCCC5)C3)C(=O)C43CCN(C(=O)C4(C)CCN(C(=O)C5C6CCC5CN(c5ccc(N7CCC(=O)NC7=O)cn5)C6)CC4)CC3)nc(NC3CC3)c21 (stereo partly drawn) [Example 155] | < 100 nM | 70 to 85% |
| CC(C)n1cnc2cc(-c3ccc4c(c3)N([C@H]3C[C@@H](N5CCCCC5)C3)C(=O)C43CCN(C(=O)[C@@H]4CCN(C(=O)C5CCN(c6ncc(C7CCC(=O)NC7=O)cn6)CC5)C4)CC3)nc(Nc3ccccc3F)c21 (stereo partly drawn) [Example 158, 3-(2-(4-((R)-3-(6-(4-((2-fluorophenyl)amino)-3-isopropyl-3H-imidazo[4,5-c]pyridin-6-yl)-2-oxo-1-((1S,3S)-3-(piperidin-1-yl)cyclobutyl)spiro[indoline-3,4′-piperidine]-1′-carbonyl)pyrrolidine-1-carbonyl)piperidin-1-yl)pyrimidin-5-yl)piperidine-2,6-dione] | < 100 nM | 70 to 85% |
| CC(C)n1cnc2cc(-c3ccc4c(c3)N([C@H]3C[C@@H](N5CCCCC5)C3)C(=O)C43CCN(C(=O)CC4CCN(C(=O)[C@H]5CC[C@H](Oc6ccc(C7CCC(=O)NC7=O)cn6)CC5)CC4)CC3)nc(NC3CC3)c21 (stereo partly drawn) [Example 161, 3-(6-{[(1R,4R)-4-[4-(2-{6-[4-(cyclopropylamino)-3-(propan-2-yl)-3H-imidazo[4,5-c]pyridin-6-yl]-2-oxo-1-[(1S,3S)-3-(piperidin-1-yl)cyclobutyl]-1,2-dihydrospiro[indole-3,4′-piperidin]-1′-yl}-2-oxoethyl)piperidine-1-carbonyl]cyclohexyl]oxy}pyridin-3-yl)piperidine-2,6-dione] | < 100 nM | > 85% |
| CC(C)n1cnc2cc(-c3ccc4c(c3)N([C@H]3C[C@@H](N5CCCCC5)C3)C(=O)C43CCN(C(=O)[C@]4(C)CCN(C(=O)[C@H]5CC[C@H](Oc6ccc(C7CCC(=O)NC7=O)cn6)CC5)C4)CC3)nc(NC3CC3)c21 (stereo partly drawn) [Example 163, 3-(6-(((1R,4R)-4-((R)-3-(6-(4-(cyclopropylamino)-3-isopropyl-3H-imidazo[4,5-c]pyridin-6-yl)-2-oxo-1-((1S,3S)-3-(piperidin-1-yl)cyclobutyl)spiro[indoline-3,4′-piperidine]-1′-carbonyl)-3-methylpyrrolidine-1-carbonyl)cyclohexyl)oxy)pyridin-3-yl)piperidine-2,6-dione] | 100 to 500 nM | > 85% |
| CC(C)n1cnc2cc(-c3ccc4c(c3)N([C@H]3C[C@@H](N5CCCCC5)C3)C(=O)C43CCN(C(=O)C4(C)CCN(C(=O)C5CCN(c6ccc(C7CCC(=O)NC7=O)cn6)CC5)CC4)CC3)nc(Oc3ccccc3F)c21 (stereo partly drawn) [Example 164, 3-(6-{4-[4-({6-[4-(2-fluorophenoxy)-3-(propan-2-yl)-3H-imidazo[4,5-c]pyridin-6-yl]-2-oxo-1-[(1S,3S)-3-(piperidin-1-yl)cyclobutyl]-1,2-dihydrospiro[indole-3,4′-piperidin]-1′-yl}carbonyl)-4-methylpiperidine-1-carbonyl]piperidin-1-yl}pyridin-3-yl)piperidine-2,6-dione] | 100 to 500 nM | > 85% |
| CC(C)n1cnc2cc(-c3ccc4c(c3)N([C@H]3C[C@@H](N5CCCCC5)C3)C(=O)C43CCN(C(=O)C4(C)CCN(C(=O)C5CCN(c6ccc([C@@H]7CCC(=O)NC7=O)cn6)CC5)CC4)CC3)nc(OC3CCOCC3)c21 [Example 165, 3-(6-{4-[4-methyl-4-({6-[4-(oxan-4-yloxy)-3-(propan-2-yl)-3H-imidazo[4,5-c]pyridin-6-yl]-2-oxo-1-[(1S,3S)-3-(piperidin-1-yl)cyclobutyl]-1,2-dihydrospiro[indole-3,4′-piperidin]-1′-yl}carbonyl)piperidine-1-carbonyl]piperidin-1-yl}pyridin-3-yl)piperidine-2,6-dione] | < 100 nM | 70 to 85% |
| CC(C)Nc1nc(-c2ccc3c(c2)N([C@H]2C[C@@H](N4CCCCC4)C2)C(=O)C32CCN(C(=O)C3(C)CCN(C(=O)C4CCN(c5ccc(C6CCC(=O)NC6=O)cn5)CC4)CC3)CC2)cc2ncn(C(C)C)c12 (stereo partly drawn) [Example 166] | < 100 nM | > 85% |
